From paper PMC12974487, “Inhibition of FicD-mediated AMPylation and deAMPylation by isoprenoid diphosphates” (Proceedings of the National Academy of Sciences of the …, 2026) come the findings set out here.

The assay has as its target AvrB (Pseudomonas savastanoi pv. glycinea, UniProt P13835). Put plainly: Rhamnosylation of GST-Rin4 by AvrB. Format: biochemical, Pseudomonas syringae. The procedure: Finally, we explored the inhibitory effects of GPP/FPP on other Fido proteins to see if these metabolites could serve as generic inhibitors of Fido domains. To test this specificity, we performed in vitro activity assays with GPP/FPP and two constitutively active Fido proteins from bacteria: VopS from Vibrio parahaemolyticus ([25]) and AvrB from Pseudomonas syringae ([30]).
(250mM Tris pH 6.8, 10% Sodium dodecyl sulfate, 50% glycerol, 50mM DTT, 0.05% Bromophenol blue) and heated at 98°C for 5 minutes.
Rhamnosylation assays were performed as previously described (2). Briefly, AvrB and GST-Rin4 were combined in the presence of GPP or FPP, where applicable. Reactions were started by the addition of UDP-Rhamnose at a final concentration of […] and reactions were incubated for 1 hour at room temperature. Reactions were stopped by the addition of 5X SDS sample buffer […]
Equal volumes of samples suspended in 5X SDS sample buffer were resolved on hand-cast 10% 1.5mm Tris-Glycine gels with the BioRad Mini-PROTEAN Tetra Cell system. […]
Intact mass analysis of proteins was performed by the UT Southwestern Proteomics Core. Intact protein samples were analyzed by LC/MS, using a Sciex X500B QTOF mass spectrometer operating in positive ion mode, coupled to an Agilent 1290 Infinity II HPLC. […]

SMILES strings stand for the structures. Entries after “also recorded” stand apart in the source; their conditions may differ.

AvrB, sequence (P13835 whole entry, the tested form may be a part): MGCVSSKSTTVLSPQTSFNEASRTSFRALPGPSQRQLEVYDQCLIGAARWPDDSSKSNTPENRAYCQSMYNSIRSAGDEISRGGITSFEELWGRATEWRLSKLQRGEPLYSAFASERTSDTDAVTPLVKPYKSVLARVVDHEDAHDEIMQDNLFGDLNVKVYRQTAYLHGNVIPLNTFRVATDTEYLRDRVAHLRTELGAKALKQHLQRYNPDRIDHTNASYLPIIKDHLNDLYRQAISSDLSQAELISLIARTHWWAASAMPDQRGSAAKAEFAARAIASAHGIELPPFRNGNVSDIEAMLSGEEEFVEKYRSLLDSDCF

Consider `CC(C)=CCC/C(C)=C/CC/C(C)=C/COP(=O)(O)OP(=O)(O)O` [FPP, farnesyl-pyrophosphate], for which the “effect on rhamnosylation activity of AvrB” value is listed as “Neither GPP nor FPP affected; also recorded: not inhibited”.

`CC(C)=CCC/C(C)=C/COP(=O)(O)OP(=O)(O)O` [GPP, geranyl-pyrophosphate]: the “effect on rhamnosylation activity of AvrB” value is reported as “Neither GPP nor FPP affected”.
